Laboratory results reported in PubChem BioAssay AID1259407 (Chemical Carcinogenesis Research Information System (CCRIS), 2018).
The source made the active and inactive calls. How the calls were made is not given here.

Tested on: CCRIS mutagenicity, Ames/micronucleus/aberration tests
Assay: CCRIS mutagenicity studies

Compound: CC(=O)Nc1ccc2c(c1)Cc1ccccc1-2
- mutagenic call (Test System: AMES SALMONELLA TYPHIMURIUM, Strain/Indicator: TA1537, Metabolic Activation: NONE, Method: STANDARD PLATE): inactive; negative
- mutagenic call (Test System: AMES SALMONELLA TYPHIMURIUM, Strain/Indicator: TA1537, Metabolic Activation: RAT, LIVER, S-9, AROCLOR 1254, Method: SPIRAL ASSAY): inactive; negative
- mutagenic call (Test System: AMES SALMONELLA TYPHIMURIUM, Strain/Indicator: TA1537, Metabolic Activation: RAT, LIVER, S-9, PHENOBARBITAL, Method: STANDARD PLATE): active; positive
- mutagenic call (Test System: AMES SALMONELLA TYPHIMURIUM, Strain/Indicator: TA1538, Metabolic Activation: NONE, Method: STANDARD PLATE): inactive; negative
- mutagenic call (Test System: AMES SALMONELLA TYPHIMURIUM, Strain/Indicator: TA1538, Metabolic Activation: RAT, LIVER, CYTOSOL, 2-ACETYLAMINOFLUORENE, Method: STANDARD PLATE): active; positive
- mutagenic call (Test System: AMES SALMONELLA TYPHIMURIUM, Strain/Indicator: TA1538, Metabolic Activation: RAT, LIVER, CYTOSOL, AROCLOR 1254, Method: STANDARD PLATE): active; positive
- mutagenic call (Test System: AMES SALMONELLA TYPHIMURIUM, Strain/Indicator: TA1538, Metabolic Activation: RAT, LIVER, CYTOSOL, Method: STANDARD PLATE): active; positive
- mutagenic call (Test System: AMES SALMONELLA TYPHIMURIUM, Strain/Indicator: TA1538, Metabolic Activation: RAT, LIVER, MICROSOMES, 2-ACETYLAMINOFLUORENE, Method: STANDARD PLATE): active; positive
- mutagenic call (Test System: AMES SALMONELLA TYPHIMURIUM, Strain/Indicator: TA1538, Metabolic Activation: RAT, LIVER, MICROSOMES, AROCLOR 1254, Method: STANDARD PLATE): active; positive
- mutagenic call (Test System: AMES SALMONELLA TYPHIMURIUM, Strain/Indicator: TA1538, Metabolic Activation: RAT, LIVER, MICROSOMES, Method: STANDARD PLATE): active; positive
- mutagenic call (Test System: AMES SALMONELLA TYPHIMURIUM, Strain/Indicator: TA1538, Metabolic Activation: RAT, LIVER, S-9, AROCLOR 1254, Method: STANDARD PLATE): active; positive
- mutagenic call (Test System: AMES SALMONELLA TYPHIMURIUM, Strain/Indicator: TA1538, Metabolic Activation: RAT, LIVER, S-9, KC500 OR PHENOBARBITAL, Method: LIQUID SUSPENSION): active; positive
- mutagenic call (Test System: AMES SALMONELLA TYPHIMURIUM, Strain/Indicator: TA1538, Metabolic Activation: RAT, LIVER, S-9, PHENOBARBITAL, Method: STANDARD PLATE): active; positive
- mutagenic call (Test System: AMES SALMONELLA TYPHIMURIUM, Strain/Indicator: YG1024, Metabolic Activation: HUMAN, HEPATOMA CELLS, BENZO[A]ANTHRACENE, Method: PREINCUBATION): active; positive
- mutagenic call (Test System: AMES SALMONELLA TYPHIMURIUM, Strain/Indicator: YG1024, Metabolic Activation: HUMAN, HEPATOMA CELLS, Method: PREINCUBATION): active; positive
- mutagenic call (Test System: AMES SALMONELLA TYPHIMURIUM, Strain/Indicator: YG1024, Metabolic Activation: RAT, LIVER, S-9, AROCLOR 1254, Method: PREINCUBATION): active; positive
- mutagenic call (Test System: AMES SALMONELLA TYPHIMURIUM, Strain/Indicator: YG1024, Metabolic Activation: RAT, LIVER, S-9, Method: PREINCUBATION): active; positive
- mutagenic call (Test System: CHINESE HAMSTER OVARY, Strain/Indicator: AS52/6-THIOGUANINE, Metabolic Activation: NONE): inactive; negative
- mutagenic call (Test System: CHINESE HAMSTER OVARY, Strain/Indicator: AS52/6-THIOGUANINE, Metabolic Activation: RAT LIVER S-9, 2-ACETYLAMINOFLUORENE): active; positive
- mutagenic call (Test System: CHINESE HAMSTER OVARY, Strain/Indicator: CHO-K1-BH4 (HGPRT), Metabolic Activation: RAT, LIVER, S-9, AROCLOR, Method: SUSPENSION/PLATE): active; positive
- mutagenic call (Test System: CHINESE HAMSTER V-79, Strain/Indicator: V-79/6-THIOGUANINE, Metabolic Activation: HAMSTER, LIVER, S-9, AROCLOR 1254, Method: SUSPENSION/PLATE): inactive; negative
- mutagenic call (Test System: CHINESE HAMSTER V-79, Strain/Indicator: V-79/6-THIOGUANINE, Metabolic Activation: NONE, Method: SUSPENSION/PLATE): inactive; negative
- mutagenic call (Test System: CHINESE HAMSTER V-79, Strain/Indicator: V-79/6-THIOGUANINE, Metabolic Activation: RAT, LIVER, S-9, PHENOBARBITAL AND BETA-NAPHTHOFLAVONE, Method: SUSPENSION/PLATE): inactive; negative
- mutagenic call (Test System: E. COLI, Strain/Indicator: WP2 UVRA, Metabolic Activation: HAMSTER, LIVER, S-9, Method: STANDARD PLATE): inactive; negative
- mutagenic call (Test System: E. COLI, Strain/Indicator: WP2 UVRA, Metabolic Activation: MOUSE, LIVER, S-9, Method: STANDARD PLATE): inactive; negative
- mutagenic call (Test System: E. COLI, Strain/Indicator: WP2 UVRA, Metabolic Activation: NONE, Method: STANDARD PLATE): inactive; negative
- mutagenic call (Test System: E. COLI, Strain/Indicator: WP2 UVRA, Metabolic Activation: RAT, LIVER, S-9, AROCLOR 1254, Method: STANDARD PLATE): inactive; negative
- mutagenic call (Test System: E. COLI, Strain/Indicator: WP2 UVRA, Metabolic Activation: RAT, LIVER, S-9, Method: STANDARD PLATE): inactive; negative
- mutagenic call (Test System: MOUSE LYMPHOMA, Strain/Indicator: L5178Y (TK+/TK-), Metabolic Activation: NONE, Method: SUSPENSION/PLATE): active; positive
- mutagenic call (Test System: MOUSE LYMPHOMA, Strain/Indicator: L5178Y (TK+/TK-), Metabolic Activation: RAT, LIVER, S-9, AROCLOR 1254, Method: SUSPENSION/PLATE): active; positive
- mutagenic call (Test System: MOUSE LYMPHOMA, Strain/Indicator: L5178Y (TK+/TK-), Metabolic Activation: RAT, LIVER, S-9, Method: SUSPENSION/PLATE): active; positive
- mutagenic call (Test System: UDS GUINEA PIG HEPATOCYTES, Strain/Indicator: THY INCORP, Metabolic Activation: NONE, Method: AUTORADIOGRAPHY): active; positive
- mutagenic call (Test System: UDS GUINEA PIG HEPATOCYTES, Strain/Indicator: THY INCORP, Metabolic Activation: NONE, Method: LIQUID SCINTILLATION COUNTING): active; positive
- mutagenic call (Test System: UDS HAMSTER HEPATOCYTES, Strain/Indicator: THY INCORP, Metabolic Activation: NONE, Method: LIQUID SCINTILLATION COUNTING): active; positive
- mutagenic call (Test System: UDS HUMAN FIBROBLASTS, Strain/Indicator: THY INCORP (NON-S-PHASE), Metabolic Activation: NONE, Method: AUTORADIOGRAPHY): active; positive
- mutagenic call (Test System: UDS HUMAN HEPATOCYTES, Strain/Indicator: THY INCORP, Metabolic Activation: NONE, Method: AUTORADIOGRAPHY): active; positive
- mutagenic call (Test System: UDS MONKEY HEPATOCYTES, Strain/Indicator: THY INCORP, Metabolic Activation: NONE, Method: AUTORADIOGRAPHY): inactive; negative
- mutagenic call (Test System: UDS MOUSE HEPATOCYTES, Strain/Indicator: THY INCORP, Metabolic Activation: NONE, Method: LIQUID SCINTILLATION COUNTING): inactive; negative
- mutagenic call (Test System: UDS RAT HEPATOCYTES, Strain/Indicator: BROMODEOXYURIDINE INCORP, Metabolic Activation: NONE, Method: FLOW CYTOMETRIC ANALYSIS): active; positive
- mutagenic call (Test System: UDS RAT HEPATOCYTES, Strain/Indicator: THY INCORP, Metabolic Activation: AROCLOR 1254, Method: AUTORADIOGRAPHY): active; positive
- mutagenic call (Test System: UDS RAT HEPATOCYTES, Strain/Indicator: THY INCORP, Metabolic Activation: NONE, Method: AUTORADIOGRAPHY): active; positive
- mutagenic call (Test System: UDS RAT HEPATOCYTES, Strain/Indicator: THY INCORP, Metabolic Activation: NONE, Method: AUTORADIOGRAPHY (SERUM-FREE MEDIA)): active; positive
- mutagenic call (Test System: UDS RAT HEPATOCYTES, Strain/Indicator: THY INCORP, Metabolic Activation: NONE, Method: IN VIVO): active; positive
- mutagenic call (Test System: UDS RAT HEPATOCYTES, Strain/Indicator: THY INCORP, Metabolic Activation: NONE, Method: LIQUID SCINTILLATION): active; positive
- mutagenic call (Test System: UDS RAT HEPATOCYTES, Strain/Indicator: THY INCORP, Metabolic Activation: NONE, Method: LIQUID SCINTILLATION COUNTING): active; positive
- mutagenic call (Test System: UDS RODENT HEPATOCYTES, Strain/Indicator: THY INCORP (NON-S-PHASE), Metabolic Activation: NONE, Method: AUTORADIOGRAPHY): active; positive
- mutagenic call (Test System: UDS RODENT HEPATOCYTES, Strain/Indicator: THY INCORP (NON-S-PHASE), Method: AUTORADIOGRAPHY): active; positive
- mutagenic call (Test System: UDS RODENT HEPATOCYTES, Strain/Indicator: THY INCORP (NON-S-PHASE), Method: LIQUID SCINTILLATION COUNTING): active; positive
- mutagenic call (Test System: UDS, Strain/Indicator: HEPG2/THYMIDINE INCORPORATION, Metabolic Activation: NONE, Method: AUTORADIOGRAPHY): active; positive
